Here are results for twelve compounds from PubChem BioAssay (NCI).

Holding throughout (assay): NCI-60 cell line screen, 48 h
In test [1] the test system is HL-60(TB) leukemia.
For test [2], the system named is HT29 colon.
Test [3] concerns IGROV1 ovarian.
Test [4] deals with K-562 leukemia.
Test [5] deals with KM12 colon.
For test [6], the system named is OVCAR-8 ovarian.
The test system of test [7] is SF-268 CNS.
Test [8] relates to SF-295 CNS.
For test [9], the system named is SN12C renal.
Test [10] relates to UACC-62 melanoma.

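1) Cells in 96-well plates. 2) Compound, 48 h, 5 concentrations. 3) Linear interpolation between surrounding doses. 4) Unreached endpoint = highest concentration. GI50 marks 50% less growth. At the TGI there is no net growth.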 Where only a bound is given, the exact number is not on record here.

With `CCOC(=O)C1=C(C)N(Cc2ccc(Cl)cc2Cl)C2(O)C(OC)CC(=O)C3C(=O)N(c4ccccc4)C(=O)C132` (stereo not given), the TGI in [1] came to 6.9 µM; in [2], 4 µM; in test [3], 16.9 µM; in test [4] it was 3.87 µM; in test [5], 9.03 µM; in [6], 6.19 µM. Besides, the TGI in test [7] came to 14.3 µM; in test [8], 20.2 µM; in test [9] it was 9.9 µM; in [10], 11.9 µM.
Turning to `C[C@@H]1O[C@@H]2OCC[C@@H]2C2=C1C(=O)c1ccccc1C2=O`, the TGI in test [1] is 19.1 µM; in [2], greater than 100 µM; in [3], 10.8 µM; in test [4] it was 32.7 µM; in test [5] it was 30.7 µM; in test [6], greater than 100 µM. Moreover, the TGI came to 16.9 µM in test [7], 33 µM in [8], 29.8 µM in [9] and 17.4 µM in test [10].
In the case of `Cc1ccc(NCCN(C)CC(C)O)c2c(=O)c3ccc(Cl)cc3sc12` (stereo not given), the GI50 in test [3] was 4.79 µM; in test [6], 7.16 µM; in [7], 6.47 µM; in test [9], 4.42 µM; in [10] it was 1.85 µM. In addition, the TGI was greater than 100 µM in [3]; greater than 100 µM in test [6]; greater than 100 µM in test [7]; greater than 100 µM in test [9]; 3.48 µM in test [10].
For `N=c1nc(N)nc(N)n1-c1ccc(S(N)(=O)=O)cc1`, the TGI in [1], in [2], in test [3], in test [4], in test [5] and in [6] was greater than 100 µM throughout. The TGI in test [7], in test [8], in test [9] and in test [10] was greater than 100 µM in each case.
Regarding `CC(=O)NC1C(OCc2ccccc2)OC(CO)C(O)C1OCC(=O)NC(C)C(=O)NC(CCC(=O)OCCNC(=O)c1cccc2cc3ccccc3nc12)C(N)=O` (stereo not given), the TGI in [1] was 57.7 µM; in test [2], greater than 100 µM; in [3], 48.9 µM; in test [4] it was greater than 100 µM; in [5], 56.3 µM; in [6] it was 39.4 µM. For the same compound, the TGI in [7] is 67 µM; in [8], 68.2 µM; in test [9] it was greater than 100 µM; in test [10] it was 34.3 µM.
For the compound `CCOC(=O)C1=C(C)N2CCCOC2(C)C(C(=O)OC)C1c1cccc([N+](=O)[O-])c1` (stereo not given), the TGI in test [1], in test [2], in test [3], in [4], in test [5] and in test [6] was greater than 100 µM in each case. The TGI in [7], in test [8] and in test [10] was greater than 100 µM each time.
In the case of `Cc1c2ccccc2nc2[nH]c3ccncc3c12`, the TGI in test [1], in test [2], in test [3], in test [4], in test [5] and in [6] was greater than 100 µM each time. The TGI in test [7] is 32.8 µM; in [8], greater than 100 µM; in [9], 85.1 µM; in test [10], 74.8 µM.
In the case of `NC(Cc1ccc2oc3cc(=O)c4ccccc4c-3nc2c1)C(=O)O` (stereo not given), the TGI in [1] was 76.2 µM; in test [2], 72.6 µM; in test [3] it was greater than 100 µM; in [4], 77.1 µM; in [5], greater than 100 µM; in test [6], greater than 100 µM. The TGI in [7] was greater than 100 µM; in test [8] it was 55.5 µM; in test [9] it was 39.5 µM; in test [10], 22.5 µM.
In the case of `CN(C)CCNc1ccc2nnn3c4ccc(Cl)cc4c(=O)c1c23`, the TGI in test [1] amounted to 19.9 µM; in test [2], 15.9 µM; in [3] it was 38.7 µM; in test [4] it was 22.7 µM; in test [5] it was 20.8 µM; in [6] it was 16.9 µM. The TGI in test [7] stood at 23.1 µM; in test [8], 15.7 µM; in test [9], 21.8 µM; in test [10], 18.6 µM.
In the case of `COc1cc2c(cc1O)CCN[C@@]21CS[C@H]2c3c(OC(C)=O)c(C)c4c(c3C(COC1=O)N1C2C2c3c(cc(C)c(OC)c3O)CC([C@@H]1O)N2C)OCO4` (stereo not given in full), the GI50 in [1] was less than 1 pM; in test [3], 0.000783 µM; in test [4], less than 1 pM; in [5] it was 0.00337 µM; in test [6], 0.00149 µM; in [8], 0.000788 µM. For the same compound, the TGI was less than 1e-06 µM in test [1]; 1.54e-05 µM in test [4]; 0.0161 µM in test [5]; 0.0277 µM in [8]; 4.41e-06 µM in test [9].
As for `O=S(=O)(O)c1cc(O)c2c(O)c(N=Nc3ccc(/C=C/c4ccc(N=Nc5c(S(=O)(=O)O)cc6cc(S(=O)(=O)O)cc(O)c6c5O)cc4S(=O)(=O)O)c(S(=O)(=O)O)c3)c(S(=O)(=O)O)cc2c1`, the TGI in test [1], in test [2], in test [3], in test [4], in [5] and in test [6] was greater than 100 µM each time. Also, the TGI in test [7], in [8], in test [9] and in [10] was greater than 100 µM throughout.
Take `N=C(N)SC1c2ccccc2-c2cc([N+](=O)[O-])ccc21` (stereo not given): the TGI is 11.9 µM in test [1]; 13.5 µM in test [2]; 18 µM in test [3]; 22 µM in [4]; 11.4 µM in test [5]; 37.1 µM in test [6]. Also, the TGI stood at 14.3 µM in test [7], 15.7 µM in test [8], 26.6 µM in test [9] and 10.1 µM in [10].
